Laboratory results reported in patent US9893302B2, “Heterocyclic fluorescent dyes and method of production thereof” (BASF SE, priority 2013, dated 2018).
Values joined by “and” are separate entries in the source; they are usually repeats but may differ in a detail not shown here. Identical values can stand only once. Like-named read-outs stand apart in the source and are kept apart here.

What was measured:
[1] = Spectroscopic data: absorption, emission, Stokes shift, extinction coefficient, fluorescence quantum yield; type: physicochemical; settings: for φfl (fluorescence quantum yield): standards Rhodamine B or Rhodamine 6G in EtOH
Description: Spectroscopic data of compounds 3a, 3b and 3d as well as comparative compounds
Rhodamine B in EtOH or Rhodamine 6G in EtOH are used as standards for quantum yield measurements.

[2] = Solubility in typical organic solvents; type: physicochemical; settings: for solubility compared with compound V-1: in typical organic solvents; for solubility: organic solvent or mixture
Description: Reference is made to the below table.

[3] = in CHCl3, read-out: Solubility in CHCl3
[4] = in Toluene, read-out: Solubility in Toluene

Compound | fluorescence quantum yield [1] | Stokes shift ([1]; solvent CHCl3) [cm⁻¹] | maxλabs ([1]; solvent CHCl3) [nm] | maxλem ([1]; solvent CHCl3) [nm] | εmax ([1]; solvent CHCl3) [M⁻¹ cm⁻¹] | φfl (fluorescence quantum yield) ([1]; solvent CHCl3) | solubility compared with compound V-1 [2] | solubility [2, 3] | solubility [2, 4] | melting point | Stokes shift ([1]; solvent DMF) [cm⁻¹] | maxλabs ([1]; solvent DMF) [nm] | maxλem ([1]; solvent DMF) [nm] | εmax ([1]; solvent DMF) [M⁻¹ cm⁻¹] | φfl (fluorescence quantum yield) ([1]; solvent DMF)
COc1cc2c(cc1OC)C1=C3C(=O)N4C=C(c5ccccc5)c5cc(OC)c(OC)cc5C4=C3C(=O)N1C=C2c1ccccc1 [3a] | around 80% | 140 | 600 | 605 | 100000 | 0.89 | order of magnitude higher | 3460 µM and 2110 µg/mL | 47 µM and 28.6 µg/mL |  |  |  |  |  | 
COc1cccc(C2=CN3C(=O)C4=C5c6cc(OC)c(OC)cc6C(c6cccc(OC)c6)=CN5C(=O)C4=C3c3cc(OC)c(OC)cc32)c1 [3b] | around 80% | 220 | 601 | 609 | 85000 | 0.85 | order of magnitude higher | 955 µM and 639 µg/mL | 53.4 µM and 35.7 µg/mL |  |  |  |  |  | 
CC(C)(C)c1cc(C(C)(C)C)c2oc3c(c2c1)C(c1ccccc1)=CN1C(=O)C2=C4c5oc6c(C(C)(C)C)cc(C(C)(C)C)cc6c5C(c5ccccc5)=CN4C(=O)C2=C31 [3d] | around 80% | 160 | 654 | 661 | 150000 | 0.81 | order of magnitude higher |  |  | > 400 °C (dec.) |  |  |  |  | 
COc1cc2c(cc1OC)C1=C3C(=O)N4C=Cc5cc(OC)c(OC)cc5C4=C3C(=O)N1C=C2 [V-1] |  | 200 | 593 | 600 | 110000 | 0.19 |  | 272 µM and 126 µg/mL | 6.13 µM and 2.85 µg/mL |  | 220 | 593 | 601 | 91000 | 0.22
CC(C)(C)c1cc(C(C)(C)C)c2oc3c(c2c1)C=CN1C(=O)C2=C4c5oc6c(C(C)(C)C)cc(C(C)(C)C)cc6c5C=CN4C(=O)C2=C31 [V-2] |  | 210 | 643 | 652 | 120000 | 0.05 |  |  |  |  | 240 | 645 | 655 | 107000 | 0.02
